Values quoted from earlier work, collected in patent US3955959A, “Herbicide for use in transplanted rice” (priority 1974, dated 1976).

Experiments:
rice = conditions: prior art; cited from earlier work
weeds in rice fields = conditions: prior art; cited from earlier work

SMILES: CC(C)Oc1cc(-n2nc(C(C)(C)C)oc2=O)c(Cl)cc1Cl [2-tert-butyl-4-(2,4-dichloro-5-isopropyloxyphenyl)-5-oxo-1,3,4-oxadiazoline]
- crop safety (rice): marginal crop safety

SMILES: CCSC(=O)N1CCCCCC1 [S-ethyl hexahydro-1H-azepine-1-carbothioate]
- spectrum of weed control (weeds in rice fields): narrow spectrum of weed control
